Test results from patent EP0322748B1, “Antibiotic NK86-0279, process for production of the same and application of the same” (NIPPON KAYAKU KABUSHIKI KAISHA, priority 1987, dated 1989).
≈ marks a conversion by molar mass, not a printed value.

What was measured:
acute toxicity = conditions: mouse, in vivo, ip; mice
[1] = test system: mouse pulmonary cancer cells (LL); assay: growth-inhibitory effect on mouse pulmonary cancer cells, dye exclusion method; format: cell-based; conditions: 72 h
Description: The growth-inhibitory effects of the compound of the present invention on mouse pulmonary cancer cells (LL) and human plumonary cancer cells (PC-3) were examined.
A 96-well plate was inoculated with mouse pulmonary cancer cells at a ratio of 8.0 x 10² cells per well, while another 96-well plate was inoculated with human pulmonary cancer cells at a ratio of 2.5 x 10³ per well. These cells were incubated in an incubator at 37°C under 5 % CO₂ for 24 hours. Then the compound of the present invention was added thereto at various concentrations. Cells in each well were counted by the dye exclusion method three days after the addition to thereby evaluate the growth-inhibitory effect of the test compound on the mouse pulmonary cancer cells (LL) and that on the human pulmonary cancer cells (PC-3).

[2] = test system: mouse malignant melanoma (B16 melanotic melanoma); assay: in-vivo test by intravenous administration against mouse malignant melanoma, tumor volume; set-up: species or system C57BL/6 mouse
Description: (§1) The anti-cancer action of the compound of the present invention against mouse malignant melanoma (B16 melanotic melanoma) was examined. 5 x 10⁵ mouse malignant melanoma cells were inoculated into a subcutaneous portion of the right body side of a 6 week-old male C57BL/6 mouse, and the compound of the present invention was intravenously administered to the mouse in various concentrations every day from the next day or from 7 days after the inoculation once a day for 5 days. On the 11 days after the inoculation, the minor axis and the major axis of the tumor were measured, and the volume of the tumor was determined by using the following equation: (minor axis)² x […]/2 [formula] . Then, the percentage inhibition of proliferation of each tumor with respect to the compound of the present invention was determined from the ratio of the volume of the tumor on the groups of administration of the compound of the present invention relative to that on the control group.

[3] = test system: human melanoma cells (A375); assay: growth-inhibitory effect on human melanoma cells, dye exclusion method; format: cell-based
Description: The growth-inhibitory effects of the compound of the present invention on mouse melanoma cells (B16) and human melanoma cells (A375) were examined. A 96-well plate was inoculated with mouse melanoma cells at a ratio of 1.5 x 10³ cells per well, while another 96-well plate was inoculated with human melanoma cells at a ratio of 1.0 x 10³ per well. These cells were incubated in an incubator at 37°C under 5 % CO₂. Then the compound of the present invention was added thereto at various concentrations. Cells in each well were counted by the dye exclusion method 65 hours after the addition to thereby evaluate the growth-inhibitory effect of the test compound on the mouse melanoma cells and that on the human melanoma cells.

[4] = test system: mosquito culices (a sensitive species); assay: insecticidal action, mortality rate of mosquito larvae; format: in vivo
Description: The insecticidal action of the compound of the present invention was examined by the following method. • (1) An imago of two-spotted spider mite acarids (a Kelthane-resistant species) was used as a test vermin, and the mortality rate thereof was assayed according to an ordinary method (described on page 327 of "Noyaku Seibutsu Kenteiho" edited by Toyoji Hosotsuji). Specifically, a solution of the compound of the present invention in acetone (0.1 %) was added to 0.5 ml of an aqueous sucrose solution (1 %) to have a predetermined concentration. Ten two-spotted spider mite acarids were released in a vessel (200-ml beaker), and the vessel was covered with a paraffin film. The agent solution prepared above was put on the paraffin film, and another praffin film was put thereon. The beaker was allowed to stand in a thermostatic chamber (20 ± 1°C) for a predetermined period of time, and the life and death of the test vermin was investigated. • (2) A larva of mosquito culices (a sensitive species) was used as a test vermin, and the mortality rate thereof was assayed according to an ordinary method (described on page 109 of "Noyaku Jikkenho I, Sacchuzaihen" published by Soft Science, Inc.). Specifically, 10 ml of well water was placed in a vessel (15-ml Schale), and 5 larvae of mosquito culices (the third stage) were released in the vessel. A solution of the compound of the present invention in acetone (0.1 %) was added thereto so as to have a predetermined concentration. The vessel was allowed to stand in a thermostatic chamber (26 ± 1°C) for a predetermined period of time, and the life and death of the test vermin was investigated.

[5] = test system: mouse malignant melanoma (B16 melanotic melanoma); assay: in-vivo test by peroral administration against mouse malignant melanoma, tumor volume; set-up: species or system C57BL/6 mouse
Description: as §1, with “perorally” for “intravenously”

With `CCC1C=CC=CCC(C)C(O)C(C)(O)C(=O)C(C)C(O)C(C)C(=O)C(C)C(O)C(C)C=CC(=O)OC2C(C)C(CC1)OC1(OC(CC(C)O)C(C)CC1=O)C2CC` (stereo not shown) [NK86-0279] the LD50 (acute toxicity) was 1.67 mg/kg, the IC50 ([1]; mouse pulmonary cancer cells (LL), three days after the addition, read-out: IC₅₀) was 0.0098 µg/mL (≈ 0.012 µM) and the inhibition at 0.024 µg/mL ([1]; Mus musculus, LL, 0.024 µg/ml, read-out: Growth-inhibitory ratio) was 30.4%. For the same compound, the inhibition at 0.061 µg/mL ([1]; Mus musculus, LL, 0.061 µg/ml, read-out: Growth-inhibitory ratio) was -5.7%, the inhibition at 0.098 µg/mL ([1]; Mus musculus, LL, 0.098 µg/ml, read-out: Growth-inhibitory ratio) was 50% and the inhibition at 0.39 µg/mL ([1]; Mus musculus, LL, 0.39 µg/ml, read-out: Growth-inhibitory ratio) was 61%. For the same compound, the inhibition at 1.56 µg/mL ([1]; Mus musculus, LL, 1.56 µg/ml, read-out: Growth-inhibitory ratio) was 92.1%, the inhibition at 6.25 µg/mL ([1]; Mus musculus, LL, 6.25 µg/ml, read-out: Growth-inhibitory ratio) was 114% and the inhibition at 25 µg/mL ([1]; Mus musculus, LL, 25 µg/ml, read-out: Growth-inhibitory ratio) was 110%. The inhibition at 100 µg/mL ([1]; Mus musculus, LL, 100 µg/ml, read-out: Growth-inhibitory ratio) was 109%, the “Growth-inhibitory ratio (tumor volume)” value ([2]; 0.05 mg/kg intravenously once a day for 5 days, administered from 7 days after the inoculation) was 57.4% and the “Growth-inhibitory ratio (tumor volume)” value ([2]; 0.05 mg/kg intravenously once a day for 5 days, administered from the next day of the inoculation) was 57.0%. For the same compound, the “Growth-inhibitory ratio (tumor volume)” value ([2]; 0.10 mg/kg intravenously once a day for 5 days, administered from 7 days after the inoculation) was 69.1%, the “Growth-inhibitory ratio (tumor volume)” value ([2]; 0.10 mg/kg intravenously once a day for 5 days, administered from the next day of the inoculation) was 62.9% and the “Growth-inhibitory ratio (tumor volume)” value ([2]; 0.20 mg/kg intravenously once a day for 5 days, administered from 7 days after the inoculation) was 76.6%. For the same compound, the “Growth-inhibitory ratio (tumor volume)” value ([2]; 0.20 mg/kg intravenously once a day for 5 days, administered from the next day of the inoculation) was 56.9%, the “Growth-inhibitory ratio (tumor volume)” value ([2]; 0.40 mg/kg intravenously once a day for 5 days, administered from 7 days after the inoculation) was 81.9% and the “Growth-inhibitory ratio (tumor volume)” value ([2]; 0.40 mg/kg intravenously once a day for 5 days, administered from the next day of the inoculation) was 50.5%. The IC50 ([3]; A-375, human melanoma cells (A375), 65 hours after the addition, read-out: IC₅₀) was 1.87 µg/mL (≈ 2.28 µM), the inhibition at 0.0061 µg/mL ([3]; Homo sapiens, A-375, 65 h, A375, 0.0061 µg/ml, read-out: Growth-inhibitory ratio) was 19.7% and the inhibition at 0.024 µg/mL ([3]; Homo sapiens, A-375, 65 h, A375, 0.024 µg/ml, read-out: Growth-inhibitory ratio) was 39.7%. It also gave an inhibition at 0.098 µg/mL ([3]; Homo sapiens, A-375, 65 h, A375, 0.098 µg/ml, read-out: Growth-inhibitory ratio) of 49.4%, an inhibition at 0.39 µg/mL ([3]; Homo sapiens, A-375, 65 h, A375, 0.39 µg/ml, read-out: Growth-inhibitory ratio) of 43.7% and an inhibition at 1.56 µg/mL ([3]; Homo sapiens, A-375, 65 h, A375, 1.56 µg/ml, read-out: Growth-inhibitory ratio) of 44.4%. For the same compound, the inhibition at 6.25 µg/mL ([3]; Homo sapiens, A-375, 65 h, A375, 6.25 µg/ml, read-out: Growth-inhibitory ratio) was 83.6%, the inhibition at 25 µg/mL ([3]; Homo sapiens, A-375, 65 h, A375, 25 µg/ml, read-out: Growth-inhibitory ratio) was 105% and the inhibition at 100 µg/mL ([3]; Homo sapiens, A-375, 65 h, A375, 100 µg/ml, read-out: Growth-inhibitory ratio) was 105%. It also gave a mortality at 1 ppm ([4]; 48 h, after 2 days) of 0%, a mortality at 10 ppm ([4]; 48 h, after 2 days) of 100% and a mortality at 1 ppm ([4]; 144 h, 6 days) of 0%. The mortality at 10 ppm ([4]; 144 h, 6 days) was 100%, the mortality at 1 ppm ([4]; 216 h, 9 days) was 0% and the mortality at 10 ppm ([4]; 216 h, 9 days) was 100%. The “Growth-inhibitory ratio (tumor volume)” value ([5]; 0.5 mg/kg perorally once a day for 5 days, administered from 7 days after the inoculation) was 44.7%, the “Growth-inhibitory ratio (tumor volume)” value ([5]; 0.5 mg/kg perorally once a day for 5 days, administered from the next day of the inoculation) was 90.5% and the “Growth-inhibitory ratio (tumor volume)” value ([5]; 1.0 mg/kg perorally once a day for 5 days, administered from 7 days after the inoculation) was 72.3%. For the same compound, the “Growth-inhibitory ratio (tumor volume)” value ([5]; 1.0 mg/kg perorally once a day for 5 days, administered from the next day of the inoculation) was 94.6%, the “Growth-inhibitory ratio (tumor volume)” value ([5]; 2.0 mg/kg perorally once a day for 5 days, administered from 7 days after the inoculation) was 57.4% and the “Growth-inhibitory ratio (tumor volume)” value ([5]; 2.0 mg/kg perorally once a day for 5 days, administered from the next day of the inoculation) was 69.5%. The “Growth-inhibitory ratio (tumor volume)” value ([5]; 4.0 mg/kg perorally once a day for 5 days, administered from 7 days after the inoculation) was 75.5%, the “Growth-inhibitory ratio (tumor volume)” value ([5]; 4.0 mg/kg perorally once a day for 5 days, administered from the next day of the inoculation) was 64.5% and the “Growth-inhibitory ratio (tumor volume)” value ([5]; 8.0 mg/kg perorally once a day for 5 days, administered from 7 days after the inoculation) was 67.0%. The “Growth-inhibitory ratio (tumor volume)” value ([5]; 8.0 mg/kg perorally once a day for 5 days, administered from the next day of the inoculation) was 66.0%.
